pEC50: −log10 of the molar value.

One may read the pEC50 as the negative decadic logarithm of the EC50, by convention in mol/L.

The assay has as its system HIV-1 single-round infectious reporter virus. Put plainly: Single-round infectious HIV-1 luciferase reporter virus infection of HeLa CD4 cells. The class given is cell-based. The conditions noted are these: Human immunodeficiency virus 1, HeLa, 72 h, read-out: EC50 Group from Table 1. On the procedure: • Virus production—Human embryonic Kidney cell line, 293, was propagated in Dulbecco's Modified Eagle Medium (Invitrogen, Carlsbad, Calif.) containing 10% fetal Bovine serum (FBS, Sigma, St. Louis, Mo.). • Virus infection—Human epithelial cell line, HeLa, expressing the HIV-1 receptor CD4 was propagated in Dulbecco's Modified Eagle Medium (Invitrogen, Carlsbad, Calif.) containing 10% fetal Bovine serum (FBS, Sigma, St. Louis, Mo.) and supplemented with 0.2 mg/mL Geneticin (Invitrogen, Carlsbad, Calif.). Virus-Single-round infectious reporter virus was produced by co-transfecting human embryonic Kidney 293 cells with an HIV-1 envelope DNA expression vector and a proviral cDNA containing an envelope deletion mutation and the luciferase reporter gene inserted in place of HIV-1 nef sequences (Chen et al, Ref 41). Transfections were performed using lipofectAMINE PLUS reagent as described by the manufacturer (Invitrogen, Carlsbad, Calif.). Experiment • 1. HeLa CD4 cells were plated in 96 well plates at a cell density of 1×10^4 cells per well in 100 μl Dulbecco's Modified Eagle Medium containing 10% fetal Bovine serum and incubated overnight. • 2. Compound was added in a 2 μl dimethylsulfoxide solution, so that the final assay concentration would be ≦10 μM. • 3. 100 μl of single-round infectious reporter virus in Dulbecco's Modified Eagle Medium was then added to the plated cells and compound at an approximate multiplicity of infection (MOI) of 0.01, resulting in a final volume of 200 μl per well. • 4. Virally-infected cells were incubated at 37 degrees Celsius, in a CO2 incubator, and harvested 72 h after infection. • 5. Viral infection was monitored by measuring luciferase expression from viral DNA in the infected cells using a luciferase reporter gene assay kit, as described by the manufacturer (Roche Molecular Biochemicals, Indianapolis, Ind.). Infected cell supernatants were removed and 50 μl of lysis buffer was added per well. After 15 minutes, 50 μl of freshly-reconstituted luciferase assay reagent was added per well. Luciferase activity was then quantified by measuring luminescence using a Wallac microbeta scintillation counter. • 6. The percent inhibition for each compound was calculated by quantifying the level of luciferase expression in cells infected in the presence of each compound as a percentage of that observed for cells infected in the absence of compound and subtracting such a determined value from 100. • 7. An EC50 provides a method for comparing the antiviral potency of the compounds of this invention. The effective concentration for fifty percent inhibition (EC50) was calculated with the Microsoft Excel Xlfit curve fitting software. For each compound, curves were generated from percent inhibition calculated at 10 different concentrations by using a four paramenter logistic model (model 205). Table 1 is the key for the data in Table 2. Results
(In general: A reporter such as luciferase makes a cellular process visible.)
Take `COc1ccc(C(=N)NNC(=O)CC#N)c2[nH]cc(C(=O)C(=O)N3CCN(c4nccc5ccccc45)CC3)c12` [Example 25]: the pEC50 was more than 6.00.
In the case of `COc1cnc(-n2cncn2)c2[nH]cc(C(=O)C(=O)N3CCN(c4ncnc5ccccc45)CC3)c12` [Example 47], the pEC50 was more than 6.00.
The result for `Cc1cc(N2CCN(C(=O)C(=O)c3c[nH]c4c(-c5ncon5)ccc(F)c34)CC2)c2ccccc2n1` [Example 40] reads more than 6.00; that for `COc1cnc(-n2cnc(C)n2)c2[nH]cc(C(=O)C(=O)N3CCN(c4ncnc5ccccc45)CC3)c12` [Example 46], more than 6.00.
Then `O=C(C(=O)N1CCN(c2ncnc3ccccc23)CC1)c1c[nH]c2c(-c3cccnc3)ncc(F)c12` [Example 83], with more than 6.00; and `COc1ccc(-n2cncn2)c2[nH]cc(C(=O)C(=O)N3CCN(c4nccc5ccccc45)CC3)c12` [Example 31], with more than 6.00; and `COc1cnc(-n2cnc(C)n2)c2[nH]cc(C(=O)C(=O)N3CCN(c4nncc5ccccc45)CC3)c12` [Example 55], with more than 6.00.
Regarding `COc1cnc(-n2ccnn2)c2[nH]cc(C(=O)C(=O)N3CCN(c4nc(Cl)cc5ccccc45)CC3)c12` [Example 67], the pEC50 was more than 6.00.
Then `O=C(C(=O)N1CCN(c2nncc3ccccc23)CC1)c1c[nH]c2c(-c3ccccn3)ncc(F)c12` [Example 77], with more than 6.00; and `COc1cnc(Br)c2[nH]cc(C(=O)C(=O)N3CCN(c4ncnc5ccccc45)CC3)c12` [Example 53], with more than 6.00; and `O=C(C(=O)N1CCN(c2ncnc3ccccc23)CC1)c1c[nH]c2c(-n3ccnn3)ncc(F)c12` [Example 48], with more than 6.00.
Then `COc1cnc(C(N)=O)c2[nH]cc(C(=O)C(=O)N3CCN(c4nncc5ccccc45)CC3)c12` [Example 64], with more than 6.00; and `O=C(C(=O)N1CCN(c2ncnc3ccccc23)CC1)c1c[nH]c2c(Br)ncc(F)c12` [Example 73], with more than 6.00.
Take `O=C(C(=O)N1CCN(c2ncnc3ccccc23)CC1)c1c[nH]c2c(-c3ncccn3)ncc(F)c12` [Example 84]: the pEC50 is more than 6.00.
Then `COc1cnc(Br)c2[nH]cc(C(=O)C(=O)N3CCN(c4nncc5ccccc45)CC3)c12` [Example 62], with more than 6.00; and `O=C(C(=O)N1CCN(c2nccc3ccccc23)CC1)c1c[nH]c2c(Cl)ccnc12` [Example 37], with more than 6.00.
In the case of `O=C(C(=O)N1CCN(c2ncnc3ccccc23)CC1)c1c[nH]c2c(-c3cn[nH]c3)ncc(F)c12` [Example 95], the pEC50 was more than 6.00.
Then `O=C(C(=O)N1CCN(c2nc(Cl)cc3ccccc23)CC1)c1c[nH]c2c(-n3ccnn3)ncc(F)c12` [Example 68], with more than 6.00; and `O=C(C(=O)N1CCN(c2nncc3ccccc23)CC1)c1c[nH]c2c(-c3cnccn3)ncc(F)c12` [Example 78], with more than 6.00.
Then `COc1ncc(OC)c2c(C(=O)C(=O)N3CCN(c4ncnc5ccccc45)CC3)c[nH]c12` [Example 9], with more than 6.00; and `COc1ccc(C(=N)NNC(=O)c2cccnc2)c2[nH]cc(C(=O)C(=O)N3CCN(c4nccc5ccccc45)CC3)c12` [Example 23], with more than 6.00; and `COc1cnc(-c2cc[nH]n2)c2[nH]cc(C(=O)C(=O)N3CCN(c4ncnc5ccccc45)CC3)c12` [Example 96], with more than 6.00.
Turning to `COc1cnc(-n2cnc(C)n2)c2[nH]cc(C(=O)C(=O)N3CCN(c4ccnc5ccccc45)CC3)c12` [Example 39], the pEC50 is more than 6.00.
Then `COc1ccc(-c2nc(CC#N)n[nH]2)c2[nH]cc(C(=O)C(=O)N3CCN(c4nccc5ccccc45)CC3)c12` [Example 24], with more than 6.00; and `COc1ccc(-c2nnn(CC(=O)O)n2)c2[nH]cc(C(=O)C(=O)N3CCN(c4nccc5ccccc45)CC3)c12` [Example 27], with more than 6.00; and `COc1ccc(-c2ncon2)c2[nH]cc(C(=O)C(=O)N3CCN(c4nccc5ccccc45)CC3)c12` [Example 17], with more than 6.00.
Then `COc1ccc(-c2nc(CC(N)=O)n[nH]2)c2[nH]cc(C(=O)C(=O)N3CCN(c4nccc5ccccc45)CC3)c12` [Example 35], with more than 6.00; and `CNC(=O)Cn1nnc(-c2ccc(OC)c3c(C(=O)C(=O)N4CCN(c5nccc6ccccc56)CC4)c[nH]c23)n1` [Example 28], with more than 6.00; and `COc1ccc(-c2nc3ccccc3[nH]2)c2[nH]cc(C(=O)C(=O)N3CCN(c4nccc5ccccc45)CC3)c12` [Example 19], with more than 6.00.
Then `COc1ccc(-n2cccc2)c2[nH]cc(C(=O)C(=O)N3CCN(c4nccc5ccccc45)CC3)c12` [Example 6], with more than 6.00.
With `O=C(C(=O)N1CCN(c2nccc3ccccc23)CC1)c1c[nH]c2c(-c3ccccn3)ncc(F)c12` [Example 72], the pEC50 was more than 6.00.
The result for `CNC(=O)Cc1n[nH]c(-c2ccc(OC)c3c(C(=O)C(=O)N4CCN(c5nccc6ccccc56)CC4)c[nH]c23)n1` [Example 34] reads more than 6.00; that for `COc1ccc(-c2noc(C)n2)c2[nH]cc(C(=O)C(=O)N3CCN(c4nccc5ccccc45)CC3)c12` [Example 20], more than 6.00.
As for `COc1cnc(-c2cncnc2)c2[nH]cc(C(=O)C(=O)N3CCN(c4ncnc5ccccc45)CC3)c12` [Example 80], the pEC50 is more than 6.00.

The values above are taken from patent US8039486B2, “Indole, azaindole and related heterocyclic N-substituted piperazine derivatives” (priority 2003, dated 2011).
